Results on two molecules are retold here after PMC7664408, “Biaryl Sulfonamides Based on the 2-Azabicycloalkane Skeleton—Synthesis and Antiproliferative Activity” (Materials, 2020).

Each structure is given as a SMILES string.

One data set concerns MV4-11. Kind of data set: In vitro antiproliferative assay, MTT, 72 h. The format is cell-based, human. The note with it: Homo sapiens, biphenotypic B cell myelomonocytic leukemia MV4-11, 72 h, n.a. = not active in the range of concentrations used (up to 100 µM), read-out: IC50 [µM] ± SD [n = 5] MV4-11.
The test system of another data set is A549. Kind of data set: In vitro antiproliferative assay, SRB, 72 h. The format is cell-based, human. The note with it: Homo sapiens, lung cancer A549, 72 h, n.a. = not active in the range of concentrations used (up to 100 µM), read-out: IC50 [µM] ± SD [n = 5] A549. The source says: (§1) The following human cancer cell lines, representing the most common types of cancer, were chosen for evaluation of the antiproliferative activity of the prepared sulfonamides: lung cancer (A549), breast cancer (MCF-7), colon adenocarcinoma (LoVo), and biphenotypic B cell myelomonocytic leukemia (MV4-11). As a reference, the normal mouse fibroblasts cell line (BALB/3T3) was applied. A549, LoVo and BALB/3T3 cell lines were purchased from the ATCC (American Type Culture Collection, Rockville, MD, USA), MCF-7 cell line—from EACC (The European Collection of Cell Cultures), and MV4-11 cell line was obtained from DSMZ (Leibniz Institute—German Collection of Microorganisms and Cell Culture, Braunschweig, Germany). All these lines were maintained at the Hirszfeld Institute of Immunology and Experimental Therapy (IIET) in Wrocław, Poland.
(§2) We used the following culture media: for A549 cell line: the mixture of RPMI 1640 and OptiMEM (1:1) medium (both from Gibco, Scotland, UK)), 2mM L-glutamine, 1mM sodium pyruvate (Sigma-Aldrich Chemie GmbH, Steinheim, Germany) and 5% fetal bovine serum (FBS; HyClone Laboratories, Logan, UT, USA). MCF-7 cells were cultured in Eagle’s medium (IIET, PAS, Wroclaw, Poland), 2mM L-glutamine and 10% of FBS supplemented with 0.8 mg/L of insulin (Sigma-Aldrich Chemie GmbH, Steinheim, Germany). For LoVo cell line, F12K medium was applied (American Type Culture Collection, Rockville, MD, USA-ATCC), with 5% FBS (HyClone Laboratories, Logan, UT, USA). MV4-11 cells were cultured in RPMI 1640/GlutaMax I medium (Gibco, Thermo Fisher Scientific, Leicestershire, UK) with 1 mM sodium pyruvate (Sigma-Aldrich Chemie GmbH, Steinheim, Germany) and 10% FBS (HyClone Laboratories). In case of BALB/3T3 cells, DMEM (Gibco, Thermo Fisher Scientific) supplemented with 2 mM L-glutamine and 5% FBS was used. Antibiotics: 100 U/mL penicillin (Polfa Tarchomin SA, Warsaw, Poland) and 100 µg/mL streptomycin (Sigma-Aldrich Chemie GmbH, Steinheim, Germany) were present in all the culture media; cells were cultured in a humid atmosphere containing 5% CO2 at 37 °C.
(§3) Twenty-four hours before addition of the tested compounds, each cell line was seeded in 96-well plastic plates (Sarstedt, Numbrecht, Germany) in an appropriate medium at 10^4 cells/well density, except MCF7 cell line: 0.75 × 10^4/well, and A549 cell line: 0.25 × 10^4/well. The studied cell lines were subjected to each of the tested sulfonamides at 4 different concentrations in the range of 100–0.1 µg/mL for 72 h. Cisplatin (Teva Pharmaceuticals, Poland) was used as a reference compound, and DMSO (Sigma-Aldrich Chemie GmbH, Steinheim, Germany) served as a solvent control at concentrations equivalent to these applied in the solutions of the tested sulfonamides. MTT assay was performed for leukemic cells, while sulforhodamine B assay (SRB) for the adherent cells.
(§4) After 72 h of incubation, cells were fixed in situ by gently adding of 50 µL per well of ice-cold 50% TCA (trichloroacetic acid, POCh, Gliwice, Poland) and were incubated at 4 °C for one hour. Each well was then washed five times with water, followed by addition of 50 µL of 0.4% solution of SRB (sulforhodamine B, Sigma-Aldrich Chemie GmbH, Steinheim, Germany) in 1% acetic acid (POCh, Gliwice, Poland), and plates were again incubated at RT for 0.5 h. Plates were washed five times with 1% acetic acid to remove the unbound dye. The stained cells were treated with 10 mM TRIS (Tris base, Sigma-Aldrich, Chemie GmbH, Steinheim, Germany). Absorbance at 540 nm in each well was read with Elisa plate reader (BioTek Synergy H4, Swindon, UK) using the Gen5 software.
(§5) The results are shown as average IC50 values (concentration of the compound causing inhibition of cell proliferation by 50%) ± standard deviation. IC50 values were determined using the Prolab-3 system based on Cheburator 0.4, a software developed by Nevozhay. At each concentration, sulfonamides were tested in triplicates in a single experiment. […]

In a further data set the test system is LoVo. Kind of data set: In vitro antiproliferative assay, SRB, 72 h. It is filed as cell-based, human. The note with it: Homo sapiens, colon adenocarcinoma LoVo, n.a. = not active in the range of concentrations used (up to 100 µM), read-out: IC50 [µM] ± SD [n = 5] LoVo.
Text: as §1, §2, §3, §4, §5

Another data set has as its system MCF-7. Kind of data set: In vitro antiproliferative assay, SRB, 72 h. It is filed as cell-based, human. The note with it: Homo sapiens, MCF7, breast cancer MCF-7, 72 h, n.a. = not active in the range of concentrations used (up to 100 µM), read-out: IC50 [µM] ± SD [n = 5] MCF-7.
Text: as §1, §2, §3, §4, §5

A further data set relates to BALB/3T3. Kind of data set: In vitro antiproliferative assay on normal fibroblasts, SRB, 72 h. The format is cell-based, mouse. The note with it: normal mouse fibroblasts BALB/3T3, 72 h, SRB; n.a. = not active in the range of concentrations used (up to 100 µM); read-out: IC50 [µM] ± SD [n = 5] Balb/3T3.
Text: as §1, §2, §3, §4, §5

In turn, `C[C@@H](c1ccccc1)N1C[C@@H](NS(=O)(=O)c2ccc(-c3ccc(F)cc3)cc2)[C@@H]2CC[C@H]1C2` [Compound 9i, 4’-fluoro-N-((1S,4S,5R)-2-((S)-1-phenylethyl)-2-azabicyclo[3.2.1]octan-4-yl)-[1,1’-biphenyl]-4-sulfonamide] registered a melting point of 139 to 140 °C. Besides, the IC50 in the data set on MV4-11 amounted to 12.3 ± 3.25 µM. In addition, in the data set on A549, the IC50 came out at 24.4 ± 0.9 µM. The IC50 in the data set with LoVo came out at 13.3 ± 1.55 µM. In the data set with MCF-7, the IC50 amounted to 12.7 ± 4.91 µM. The IC50 with BALB/3T3 is 14.3 ± 3.18 µM.
Consider `C[C@@H](c1ccccc1)N1C[C@@H](CNS(=O)(=O)c2ccc(-c3ccc(F)cc3)cc2)[C@@H]2CC[C@H]1C2` [Compound 12i, 4’-fluoro-N-(((1S,4S,5R)-2-((S)-1-phenylethyl)-2-azabicyclo[3.2.1]octan-4-yl)methyl)-[1,1’-biphenyl]-4-sulfonamide], for which the melting point lay within 128 to 129 °C. In addition, the IC50 in the data set on MV4-11 was determined as 15.1 ± 3.16 µM. The IC50 with A549 was found to be 16.4 ± 1.57 µM. Moreover, the IC50 with LoVo turned out to be 15.1 ± 4.94 µM. Moreover, the IC50 in the data set with MCF-7 was found to be 12.8 ± 4.03 µM. Besides, the IC50 in the data set on BALB/3T3 is 18.4 ± 8.39 µM.

In general, melting point refers to the temperature, or range, at which the solid turns liquid.
